Reference: patent publication US20040102422A1, “Cancer therapy” (The University of Bristol, priority 2001, published 2004)

Tests used:
[1] = test system: HeLa cells; test: Apoptosis of HeLa cells transiently transfected with pWEB-E2 (HPV 16 E2) or empty pWEB, scored by GFP and Hoechst stain; type: cell-based
Protocol: (§1) In all of the following experiments, HeLa cells were maintained in Minimal Essential Medium (MEM: Sigma) supplemented with 10% Foetal Bovine Serum (FBS: Sigma) and penicillin (100,000 U/litre) and streptomycin (100 mg/litre) at 37° C. in 5% CO2. In some cases, supplements (all obtained from Sigma, with the exception of 3-hydroxytamoxifen which was obtained from Research Biochemicals International (RBI)) were added to the media at the concentrations specifically indicated for each separate experiment.
Prior to transient transfection, cells were seeded at 3×10^5 cells per well onto coverslips in 6 well plates and incubated overnight to obtain a sub-confluent culture. The liposome based reagent Tfx-20 (Promega) was used at a 3:1 liposome:DNA ratio in 1 ml serum-free media per transfection, according to the manufacturer's instructions. After 30 hours, the coverslips were washed in phosphate buffered saline (PBS) and the cells fixed in 4% paraformaldehyde/PBS at 22° C. for 30 minutes. Following further washes in PBS, the cells were stained with bisbenzimide (Hoechst No. 33258: Sigma) for 30 minutes. Finally the coverslips were washed in PBS and mounted onto microscope slides in 10 μl MOWIOL (Calbiochem).
Where used, fluorescence microscopy was carried out using a Leica DM IRBE inverted epi-fluorescent microscope with FITC and DAPI filter sets and a 20× air objective (Leica).
The plasmid pWEB-E2 expresses the HPV 16 E2 protein (Webster, K. et al., (2000) supra). Increasing amounts of pWEB-E2 and the empty pWEB vector were transiently transfected into HeLa cells, an HPV 18-transformed cell cervical carcinoma cell line, along with a plasmid (pCMX-GFP3- supplied by Dr Jeremy Tavaré of the Department of Biochemistry, University of Bristol, UK) that expresses the green fluorescent protein (GFP). After 30 hours the cells were fixed and then stained with bisbenzimide (Hoechst stain). Individual cells were scored as untransfected or transfected on the basis of GFP expression and then examined for chromatin condensation and membrane blebbing using Hoechst stain and GFP, respectively (Webster, K. et al., (2000) spra). 100 transfected cells were counted and the experiment was repeated four times.

[2] = test system: HeLa cells; test: MTT assay of HeLa cell viability / proliferation; type: cell-based; settings: for cell proliferation (number of viable cells, MTT): HeLa cultured in media containing the single agent, read at 24 hour intervals, FIG. 1(d), 1(e)
Protocol: as §1
Where MTT assays were carried out, this involved removal of the media, followed by incubation of the cells in 50 μg/ml MTT (3-(4,5 dimethylthiazol 2-yl) 2,5 diphenyl tetrazolium bromide) for 2 hours at 37° C. The blue formazan crystals were extracted and dissolved in DMSO (dimethylsulfoxide), and the absorbance measured at 560 nm wavelength using an ELISA plate reader (Mosmann, T. (1983) Journal of Immunological Methods 65, 55-631983).
To examine the effects of RU486 and progesterone on cell proliferation, HeLa cells were cultured in media containing RU486 and/or progesterone and at 24 hour intervals the number of viable cells was determined using MTT assays (Mosmann, T. (1983) supra). […] The presence of RU486 has little effect on cell proliferation (FIG. 1(e)).

In the case of CC/C(=C(/c1ccc(OCCN(C)C)cc1)c1cccc(O)c1)c1ccccc1 [3-OHT, 3-hydroxytamoxifen], the “percentage of apoptotic cells in the pWEB-transfected population” value ([1]; empty vector pWEB, presence of estrogen and 3-OHT, FIG. 2(c)) is reported as “around 5%”, the “percentage of apoptotic cells” value ([1]; pWEB-E2 transfected HeLa, 400 nM estrogen plus 400 nM 3-OHT, FIG. 2(c)) is reported as “around 10%” and the “proliferation of HeLa cells (MTT)” value ([2]; 3-OHT alone or 3-OHT with estrogen, over time, FIG. 2(e), 2(f)) is reported as “no effect”.
In the case of C[C@]12CC[C@@H]3c4ccc(O)cc4CC[C@H]3[C@@H]1C[C@@H](O)C2=O [16α-hydroxyestrone], the “level of E2-induced apoptosis” value ([1]; pWEB-E2 transfected HeLa incubated 24 hours in media with various concentrations of the hormone, FIG. 2(a), 2(b)) is reported as “increases the level of E2-induced apoptosis”.
For CC#C[C@]1(O)CC[C@H]2[C@@H]3CCC4=CC(=O)CCC4=C3[C@@H](c3ccc(N(C)C)cc3)C[C@@]21C [RU486, Mifepristone], the levels of apoptosis ([1]; 2 μM progesterone plus 100 nM and 200 nM RU486, compared with 50 nM RU486, FIG. 1(c)) was “raised compared to those at 50 nM RU486”, the “level of E2-induced apoptosis” value ([1]; pWEB-E2 transfected HeLa, 2 μM progesterone plus 50 nM RU486, FIG. 1(c)) was “reduced almost to the background levels” and the “level of apoptosis in the untransfected cells” value ([1]; progesterone plus 200 nM RU486, FIG. 1(c)) was “slight increase”. For the same molecule, the “cell proliferation (number of viable cells, MTT)” value [2] was “little effect”.
For CC(=O)[C@H]1CC[C@H]2[C@@H]3CCC4=CC(=O)CC[C@]4(C)[C@H]3CC[C@]12C [progesterone], the “levels of E2-induced apoptosis” value ([1]; HeLa cultured in 2 μM progesterone for one week prior to transfection with pWEB-E2, FIG. 1(b)) was “significant increase”, the “level of apoptosis in E2 expression plasmid transfected population” value ([1]; HeLa cultured in 2 μM progesterone one week before transfection and incubated in 2 μM progesterone, no RU486, FIG. 1(c)) was “high levels of apoptosis” and the “level of apoptosis in cells transfected with the empty pWEB vector” value ([1]; HeLa cultured in progesterone for one week prior to transfection with pWEB, FIG. 1(b)) was “around 7%”. For the same molecule, the “cell proliferation (number of viable cells, MTT)” value [2] was “decrease in cell proliferation”.
